Peptide text beside a SMILES is read from it. * marks the point of attachment. Cbz = O=C(OCc1ccccc1)*; CH2F = FC*
Key:
[1] = tested on: NIH-3T3 cells stably expressing RIPK3-1xFv; experiment: AP1-induced RIPK3 dimerization cell death, IncuCyte imaging; assay type: cell-based, murine; conditions: for effect on AP1 (RIPK3 dimerization)-induced cell death: 30 nM AP1, zVAD 50 μM, Nec1 30 μM, TNFR-Fc 200 ng/ml, siRNA 72 h before
Source text: Fv domains rapidly dimerize in response to AP1 treatment that facilitated an investigation of the protein-protein interactions involved in RIPK3 activation and necroptosis (27a). For example, an Fv domain was appended to a C-terminus of RIPK3, that is adjacent to the RHIM domain, in an effort to mimic in situ RHIM-dependent interactions that define RIPK3 activation. RIPK3-1xFv was expressed in NIH-3T3 cells, a cell line that lacks endogenous RIPK3 expression and is therefore unresponsive to TNF-induced necroptosis. See, FIGS. 13A and 13B. Cell death responses of NIH-3T3 cells were quantified by construct expression over time using the IncuCyte imaging system, which allows precise quantification of cell death with high temporal resolution. For example, representative images were acquired from an IncuCyte Imager (data not shown). These images were NIH-3T3 cells stably expressing RIPK3-1xFV, treated with 10 nM AP1 (see FIG. 1B for a quantified graphical representation of this cell death). One set of images show a field of these cells undergoing RIPK3-dependent cell death; the media contains the cell impermeable DNA binding dye Sytox Green, which marks cells that have lost membrane integrity in green. Another set of images depicts the same image set, following analysis by the IncuCyte software package. This software counts each green (dead) cell in each image; counted cells are surrounded by purple halos. Each trace shown in this manuscript depicts data averaged from at least 3 independently treated wells of cells, each of which is imaged in at least 4 separate fields. Each experiment shown is representative of at least 3 separate replicates. All experiments on stably transduced cells is representative of at least three separate replicates performed on each of at least two distinct, independently-derived stable lines.
In the examples below, the following compounds were used: Recombinant murine TNF (Peprotech 315-01A) was used at 1 ng/ml unless otherwise specified; AP1 (Now commercialized by Clontech as “B/B Homodimerizer,” catalog #635059) was dissolved in ethanol to a concentration of 100 μM, then diluted in culture media to a final concentration of 30 nM unless otherwise indicated. zVAD (SM 13 Biochemicals SMFMK001) was dissolved in DMSO to a concentration of 50 mM, then diluted to 50 μM in culture media; Necrostatin-1(Sigma N9037-10MG) was dissolved in DMSO to a concentration of 30 mM, then diluted to 30 μM in culture media; TNFR-Fc (Fisher 430-RI-050) was used at a final concentration of 200 ng/ml; Shield drug was a kind gift of Dr. Tom Wandless and was used at a final concentration of 1 μM. SiGenome SMARTpool siRNAs were purchased from Dharmacon/Fisher. Pools targeting murine MLKL(M-061420-01), murine RIPK1 (M-040150-01), and murine caspase-8 (M-043044-01), as well as a non-targeting “scramble” pool(D-001206-14), were used. Two microliters of a 50 μM stock of these siRNAs were delivered to cells in 6-well format using Lipofectamine siRNA-Max reagent (Life Technologies 13778150) according to the manufacturer's instructions. Forty-eight hours later, these cells were re-plated into 24-well format for cell death assays, or harvested for western blot analysis of knockdowns.
These constructs were transduced into NIH-3T3 cells using standard protocols for helper-dependent retroviral transduction. Transduced cells were selected for 5 days in 1 μg/ml puromycin, then grown to confluence and sorted twice for homogenous GFP expression. […]

[2] = tested on: Cells expressing RIPK3ΔC-FKBPx2; experiment: Homodimerizer-induced truncated RIPK3 necrosis, PI uptake; assay type: cell-based; conditions: homodimerizer 1-100 nM, PI uptake at 3 hrs
Experimental: (§1) FIG. 6 provides a schematic for inducible RIPK-necrosis. Two systems for inducible RIPK-necrosis. […] Cell death in cells expressing RIPK1-FRB/RIPK3-FKBP and treated with heterodimerizer, and death was detected with annexin V-FITC. Death was inhibited by necrostatin-1 (not shown) (FIG. 6B). Cells expressing RIPK3ΔC-FKBPx2, treated with homodimerizer (1-100 nM); death was detected at 3 hrs by PI uptake. No effect of zVAD-fmk or necrostatin was observed (FIG. 6B).
(§2) An inducible dimer system has been employed to trigger homodimerization of caspase-8 in cells (27). The data provided herein support methods to induce RIPK-dependent necrosis by related approaches (FIG. 6A). Heterodimerization of RIPK1 and RIPK3 results in necrosis (see FIG. 6B) which is enhanced by inhibition of caspases and blocked by inhibition of RIPK1 (with nec1, data not shown). In contrast, truncated RIPK3 (lacking the RHIM domain for interaction with RIPK1) can only be oligomerized when FKBP domains (e.g., for example, two domains) that allow multiple monomers to be brought together by the dimerizing agent. Addition of the homodimerization agent to cells expressing this construct induces extremely rapid necrosis that that depends on the kinase activity of RIPK3, but is not affected by inhibition of caspases or nec1 treatment (FIG. 6C).

[3] = tested on: cells expressing RIPK1-FRB/RIPK3-FKBP; experiment: Heterodimerizer-induced RIPK1/RIPK3 necrosis, annexin V-FITC; assay type: cell-based; conditions: data not shown
Experimental: as §1, §2

[4] = tested on: EμMyc+p53^ΔPP/wt tumor-bearing animals; assay type: in vivo, mice; conditions: 200 μg zVAD-fmk with 10 μg anti-CD95, intravenously once/day for 5 days
Experimental: EμMyc+p53^ΔPP/wt tumor-bearing animals were injected intravenously once/day for 5 days starting at P35 with 10 μg of the antagonist anti-CD95 Jot antibody and 200 μg of zVAD-fmk or vehicle control. Tumor size was monitored by ultrasound of the thymus, where volume was calculated from 3D reconstructions of the scanned tumors.
In a pilot experiment, mice with detectable tumors at 5 weeks (determined by ultrasound, and characteristic of this lymphoma) were given a short course (5 days) of agonistic anti-CD95 (Jo2) and zVAD-fmk (FIG. 11). […] Controls using zVAD-fmk alone are also included.

SMILES | effect on AP1 (RIPK3 dimerization)-induced cell death [1] | effect on AP1 (RIPK3 dimerization)-induced cell death ([1]; listed as Nec1) | inhibitory effects of Nec1 on RIPK3 oligomerization upon knockdown of RIPK1 ([1]; RIPK1 siRNA, 30 nM AP1, 30 μM Nec1) | effect on homodimerizer-induced death [2] | effect on homodimerizer-induced death ([2]; listed as nec1) | effect on heterodimerizer-induced death [3] | effect on heterodimerizer-induced death ([3]; listed as nec1) | protection from the lethal effects of anti-CD95 in vivo [4]
CN1C(=O)C(Cc2c[nH]c3ccccc23)NC1=S (stereo not shown) [necrostatin-1, Necrostatin-1] | suppressed | blocked | abrogated | No effect | not affected | inhibited | blocked | –
COC(=O)C[C@H](NC(=O)[C@H](C)NC(=O)[C@@H](NC(=O)OCc1ccccc1)C(C)C)C(=O)CF [zVAD] (Cbz-Val-Ala-Asp(OMe)-CH2F) | notably increased the rate and magnitude of necroptosis | – | – | No effect | – | – | – | completely protected

— patent US20160160189A1, “Truncated Constructs of RIPK3 and Related Uses” (ST. JUDE CHILDREN'S RESEARCH HOSPITAL, priority 2013, published 2016)
